Article PMC11267380, “USP25 Elevates SHLD2‐Mediated DNA Double‐Strand Break Repair and Regulates Chemoresponse in Cancer” (Advanced Science, 2024)

How the values were obtained:
[1] = test system: NHEJ; test: NHEJ reporter assay, cells treated with AZ1; type: cell-based; conditions: compared with USP25 depletion (decreased NHEJ); Figure S1h
[2] = test system: HR; test: HR reporter assay, cells treated with AZ1; type: cell-based; conditions: compared with USP25 depletion (increased HR); Figure S1i
[3] = test system: RKO cells; test: CCK8 survival assay, control, USP25 knockdown and SHLD2-depleted RKO cells; type: cell-based; conditions: 5-Fu (0, 0.1, 0.5, 1, 3 µM) or cisplatin (0, 0.1, 0.5, 1, 2, 5 µM)
Description: For long‐term proliferation, cells were seeded in triplicate in each well of 96‐well plates at a density of 1000 cells per well. After 24 h of culture, the cells were treated with the indicated doses of regents or peptides and incubated at 37 °C for 72 h. Subsequently, the medium was changed to a fresh medium containing cell counting kit‐8 solution (Dojindo, CK04), and the cells were placed in the incubator for an additional 1–2 h. The absorbance was measured at 450 nm using the SpectraMax M5 reader (Molecular Devices).
(§1) a) HEK293T cells stably expressing control or USP25 shRNA were untreated and treaded with etopside at the indicated time point. Cells were lysed and lysates was performed with the indicated antibodies. b-c) Representative foci images and quantification of RPA32 (b) and RAD51 (c) were obtained in U2OS cells stably expressing control or USP25 shRNA with or without IR treatment (2Gy). n>80 in each group. d) USP25 was knocked down in ER-AsiSI U2OS cells by shRNA, and cell lysates were analyzed using the indicated antibodies. e) Schematic representation of Taqman qPCR primer design for measurement of DSB% at AsiSI sites located on chromosome1(Chr.1). The primer pairs of DNA resection are across BamHI restriction sites are marked by red arrows. ER-AsiSI U2OS cells stably expressing control and USP25 shRNA were treated with 300 nM 4- hydroxytamoxifen (4-OHT) for 4 h or mock treated and genomic DNA was then extracted and digested with BamHI overnight. The percentages of ssDNA at various distances (364nt, 1754nt and 3564nt) were measured by qPCR. f-h) Control and USP25 knockdown RKO cells transfected short interfering RNAs (siRNA) against SHLD2 were subjected to survival assays for CCK8 assay in response to IR (0, 1,1.5,2,2.5,3Gy), 5-Fu (0, 0.1,0.5,1,3µM) or cisplatin(0, 0.1,0.5,1,2,5µM). Statistical analysis was performed using two-way ANOVA followed by a Turkey’s multiple comparison test (b,c,e,f,g,h) .

[4] = test system: RKO and SW620 cells; test: CCK8 survival assay, USP25 knockdown USP25-high colon cancer cells; type: cell-based; conditions: RKO: cisplatin (0, 0.5, 1, 3 µM), 5-Fu (0, 0.1, 0.5, 1, 3 µM), SW620: 5-Fu (0, 0.1, 0.5, 1, 3 µM), 72 h
Description: For long-term proliferation, cells were seeded in triplicate in each well of 96-well plates at a density of 1000 cells per well. After 24 h of culture, the cells were treated with the indicated doses of regents or peptides and incubated at 37 °C for 72 h. Subsequently, the medium was changed to a fresh medium containing cell counting kit-8 solution (Dojindo, CK04), and the cells were placed in the incubator for an additional 1-2 h. […] a) The mRNA expression levels of TRIM25, HECTD3, NEDD4L and WWP2 in human normal colon tissue samples (n=41) and colorectal adenocarcinoma tissue samples (n=286 COAD patients) from the Ualcan database were analyzed. b) The protein expression levels of USP25 were measured in HEK293T cells that stably expressed TRIM25 shRNA. c) NHEJ repair capacity of control or TRIM25 knockdown cells were subjected using a reporter assay. d-g) Immunoblot of USP25 in the RKO cells stably expressing control and USP25 shRNA. […] Statistical analysis was performed using t-test (a) or one-way ANOVA followed by a Turkey's multiple comparison test (c) or two-way ANOVA followed by a Turkey's multiple comparison test ([…]) .

[5] = test system: RPA32 phosphorylation of Ser4/Ser8 in HEK293T cells; test: RPA32 phosphorylation immunoblot after etoposide, USP25-depleted cells; type: cell-based; conditions: HEK293T stably expressing control or USP25 shRNA, Figure S2a
Description: as §1, with “Statistical analysis was performed using two-way ANOVA followed by a Turkey’s multiple comparison test (b,c,e,f,g,h) .” left out

[6] = target: T1, USP25 (Homo sapiens, UniProt Q9UHP3); test: Surface Plasmon Resonance (SPR) analysis of peptide binding; conditions: result in words; for binding affinity for USP25: Figure 7a, Figure S7a-c
T1 sequence (Q9UHP3 1-1055): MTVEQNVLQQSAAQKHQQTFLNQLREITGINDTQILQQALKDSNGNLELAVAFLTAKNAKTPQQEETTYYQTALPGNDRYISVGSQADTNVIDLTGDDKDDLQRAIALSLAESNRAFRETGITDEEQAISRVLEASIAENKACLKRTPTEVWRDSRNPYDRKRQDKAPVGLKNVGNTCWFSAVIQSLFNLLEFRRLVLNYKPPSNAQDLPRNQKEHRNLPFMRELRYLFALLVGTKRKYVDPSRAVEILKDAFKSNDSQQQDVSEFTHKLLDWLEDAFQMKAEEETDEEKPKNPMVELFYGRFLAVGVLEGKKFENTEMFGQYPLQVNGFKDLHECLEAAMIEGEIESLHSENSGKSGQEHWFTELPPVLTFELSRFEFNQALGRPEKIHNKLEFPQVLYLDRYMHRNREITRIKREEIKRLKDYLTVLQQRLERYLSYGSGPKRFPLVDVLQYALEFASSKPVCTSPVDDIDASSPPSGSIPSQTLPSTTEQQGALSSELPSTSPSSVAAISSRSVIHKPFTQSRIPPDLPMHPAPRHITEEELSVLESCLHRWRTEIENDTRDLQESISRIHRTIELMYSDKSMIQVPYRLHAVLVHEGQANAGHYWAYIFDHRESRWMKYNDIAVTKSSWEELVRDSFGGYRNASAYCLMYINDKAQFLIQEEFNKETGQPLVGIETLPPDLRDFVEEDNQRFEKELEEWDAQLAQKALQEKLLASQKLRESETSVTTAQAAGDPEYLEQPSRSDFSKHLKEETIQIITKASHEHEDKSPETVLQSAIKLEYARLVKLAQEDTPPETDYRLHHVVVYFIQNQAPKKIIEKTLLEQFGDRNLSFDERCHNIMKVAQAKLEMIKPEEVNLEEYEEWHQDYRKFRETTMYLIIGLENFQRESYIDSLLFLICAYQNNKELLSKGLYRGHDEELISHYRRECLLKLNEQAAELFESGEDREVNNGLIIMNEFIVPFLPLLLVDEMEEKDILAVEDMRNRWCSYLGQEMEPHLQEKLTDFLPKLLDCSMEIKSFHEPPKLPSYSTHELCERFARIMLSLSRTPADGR
Description: Figure 7 Disturbing the USP25 and SHLD2 interaction counteracts colon cancer progression. a) The kinetic interaction of SH‐4 and USP25 was assessed using surface plasmon resonance (SPR) analyses. b) Co‐immunoprecipitation assays (Co‐IP) were performed to detect the interaction between USP25 and SHLD2 in HEK293T cells treated with indicated peptides. c) NHEJ repair capacity of HEK293T cells treated with indicated peptides was subjected using a reporter assay. d) Representative micrographs of GFP‐SHLD2 foci and e) quantification were shown following irradiation and indicated peptide treatment. Cells were stained with anti‐GFP antibodies. f) The highest‐scoring Dock model of the SH‐4 and USP25 complex is shown. Left: the surface of SH‐4 (green) and USP25 complex. Right: the 3D structure of SH‐4 (green) and USP25 complex. g) The effect of indicated peptides(20 µM) in combination with 5‐Fu (0, 0.1, 0.5, 1, 3 µM) on the chemosensitivity of SW620 cells was determined. h‐l) Xenograft tumor formation by SW620 cells in mice that were untreated or treated with PSH‐4 and 5‐Fu or each treatment alone was analyzed. A h) schematic model, i) representative tumor images, j) tumor volume over time, k) tumor weight, and l) HE or Ki67 staining assay were presented (n = 5 animals). m) A schematic model for generating patient‐derived tumor xenografts of colorectal adenocarcinoma (COAD) was provided. n) Western blots showing USP25 levels in COAD patient tumors (patients 1–3) were presented. o) Representative immunohistochemistry (IHC) micrographs showing USP25 expression in COAD patient‐derived tumors were provided. p–s) The PDX xenograft in mice that were untreated or treated with PSH‐4([…] ) and 5‐Fu ([…] ) or each treatment alone were analyzed. Representative p) tumor images, q) tumor volume over time, r) tumor weight, and s) HE or Ki67 staining assay were presented (n = 6 animals). Statistical analysis was performed using one‐way ANOVA followed by a Turkey's multiple comparison test (c,e,k,r) or two‐way ANOVA followed by a Turkey's multiple comparison test (g,j,q). TEXT PRINTED IN THE PICTURE: (a) SH-4: KD (M) 2.082*10^-5; kd (1/s) 0.00484 DOUBTS OF THE COPYIST ABOUT THIS PICTURE: SH-4, KD (M): the digits 2.082 and the exponent -5 are in small print, the 8 could be a 6 or a 3 / SH-4, kd (1/s): 0.00484 is in small print, the 8 could be a 6 or a 3
The amino acid (aa) sequences of peptides covering the SHLD2-binding region from USP25 are shown. The kinetic interaction of peptides and USP25 was determined by surface plasmon resonance (SPR) analyses.

[7] = target: T2, USP25 (as used for SPR) (UniProt Q9UHP3 1-1055); test: SPR
T2 chain: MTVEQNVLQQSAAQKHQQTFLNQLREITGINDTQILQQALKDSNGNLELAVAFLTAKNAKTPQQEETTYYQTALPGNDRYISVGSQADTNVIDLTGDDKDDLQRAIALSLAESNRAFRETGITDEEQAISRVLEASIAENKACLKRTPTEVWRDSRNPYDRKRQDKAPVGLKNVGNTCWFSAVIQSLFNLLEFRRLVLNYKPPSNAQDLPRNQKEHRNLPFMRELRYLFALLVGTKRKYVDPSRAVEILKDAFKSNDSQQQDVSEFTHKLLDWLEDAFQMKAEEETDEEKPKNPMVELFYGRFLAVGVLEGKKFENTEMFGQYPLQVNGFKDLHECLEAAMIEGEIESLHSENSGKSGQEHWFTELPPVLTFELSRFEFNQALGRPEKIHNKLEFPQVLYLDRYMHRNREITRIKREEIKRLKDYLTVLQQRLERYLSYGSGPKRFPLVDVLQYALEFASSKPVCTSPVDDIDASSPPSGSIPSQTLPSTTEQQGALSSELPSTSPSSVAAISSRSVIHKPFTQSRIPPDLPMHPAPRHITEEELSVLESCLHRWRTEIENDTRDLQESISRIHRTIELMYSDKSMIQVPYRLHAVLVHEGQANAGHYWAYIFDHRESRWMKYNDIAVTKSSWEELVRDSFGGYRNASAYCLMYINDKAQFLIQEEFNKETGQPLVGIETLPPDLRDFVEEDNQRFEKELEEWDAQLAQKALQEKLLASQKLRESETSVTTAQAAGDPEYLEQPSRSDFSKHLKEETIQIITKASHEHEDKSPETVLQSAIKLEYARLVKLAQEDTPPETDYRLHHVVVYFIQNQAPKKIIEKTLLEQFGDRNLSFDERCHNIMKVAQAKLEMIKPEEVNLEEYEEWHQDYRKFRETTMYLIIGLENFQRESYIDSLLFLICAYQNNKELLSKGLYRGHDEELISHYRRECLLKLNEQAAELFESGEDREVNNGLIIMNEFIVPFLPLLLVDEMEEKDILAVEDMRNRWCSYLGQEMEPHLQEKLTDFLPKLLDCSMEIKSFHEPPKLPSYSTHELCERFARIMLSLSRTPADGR

[8] = target: T2, USP25 (as used for SPR); test: SPR

Molecule: OCCNCc1cc(Br)ccc1OCc1ccc(F)c(C(F)(F)F)c1 [AZ1]
- NHEJ after USP25 inhibition [1]: led to similar results as depletion of USP25 in cells
- HR after USP25 inhibition [2]: led to similar results as depletion of USP25 in cells

Molecule: N.N.[Cl][Pt][Cl] [cisplatin]
- sensitization by USP25 knockdown ([3]; Figure S2f-h): sensitized cells to IR, 5‐Fu, and cisplatin treatment
- sensitization by USP25 knockdown in SHLD2-depleted cells ([3]; SHLD2 siRNA): didn't further lead cells to sensitize to these treatments
- sensitization by USP25 knockdown, USP25-high cell lines [4]: sensitized the cells to IR, cisplatin, and 5‐Fu treatment

Molecule: COc1cc([C@@H]2c3cc4c(cc3[C@@H](O[C@@H]3O[C@@H]5CO[C@@H](C)O[C@H]5[C@H](O)[C@H]3O)[C@H]3COC(=O)[C@H]23)OCO4)cc(OC)c1O [etoposide]
- RPA32 phosphorylation of Ser4/Ser8 on USP25 depletion [5]: promoted RPA32 phosphorylation of Ser4/Ser8

Molecule: EKQHKNLENYKVPESI [SH‐2, peptide designed based on the structure of the N‐terminus (aa 1–200) of SHLD2]
- binding affinity for USP25 [6]: showed the binding affinity for USP25

Molecule: FTEEEKYQKLLSENK [SH‐3, peptide designed based on the structure of the N‐terminus (aa 1–200) of SHLD2]
- binding affinity for USP25 [6]: showed the binding affinity for USP25

Molecule: KNFNTNLFQLGHKCA [SH‐4, peptide designed based on the structure of the N‐terminus (aa 1–200) of SHLD2]
- binding affinity for USP25 [6]: showed the binding affinity for USP25
- relative binding affinity for USP25 among SH-1 to SH-4 [6]: higher affinity

Molecule: MSVADPWKKIQLLYS [SH‐1, peptide designed based on the structure of the N‐terminus (aa 1–200) of SHLD2]
- binding affinity for USP25 [6]: showed the binding affinity for USP25
- relative binding affinity for USP25 among SH-1 to SH-4 [6]: higher affinity

B1: SH-4 peptide (peptide)
peptide: KNFNTNLFQLGHKCA
- koff [7]: 0.00484 s⁻¹
- Kd [8]: 20.8 µM
